Converted amounts (≈) assume the structure as drawn.
Test: Cytotoxicity against mouse EAC cells
Format: functional, cell-based
Conditions: Ehrlich

SMILES	IC50
CNCCc1c[nH]c2c1C(=O)c1c(-c3ccc(O)cc3)c[nH]c1C2=O [ZYZZYANONE B]	25 µg/mL (≈ 74.5 µM)
CN(C=O)CCc1cn(C)c2c1C(=O)c1c(-c3ccc(O)cc3)c[nH]c1C2=O [ZYZZYANONE C]	25 µg/mL (≈ 66.2 µM)
CN(C=O)CCc1c[nH]c2c1C(=O)c1c(-c3ccc(O)cc3)c[nH]c1C2=O [ZYZZYANONE D]	25 µg/mL (≈ 68.8 µM)
